Measurements from patent US5470859A (priority 1989, dated 1995).
Structures can show the parent of a compound that is named as a salt. Where two headings read alike, the source gives them in different places.

How the values were obtained:
muscarinic receptors [1] = assay: Radio ligand binding: displacement of the muscarinic agonist 3H-Oxotremorine-M (3H-OXO-M), rat cerebral cortex; design: species or system Hooded Lister rats; conditions: 2 nM 3H-OXO-M, rat cerebral cortex membranes, 2 mM magnesium chloride, 37° C., 30 min
muscarinic receptors [2] = type: binding, Hooded Lister rats; conditions: 0.27 nM 3H-QNB, rat cerebral cortex membranes, 37° C., 30 min

Row | SMILES | IC50 (muscarinic receptors [1]) [nM] | IC50 (muscarinic receptors [2]) [nM]
1 | C(=C1/CN2CCC1C2)/c1nccs1 (racemic) [Example E10, (±) Z 3-([1,3-Thiazol-2-yl]methin)-1-azabicyclo[2.2.1]heptane oxalate salt] | 165 | 2500
2 | Cc1noc(/C=C2\CN3CCC2C3)n1 (racemic) [Example E2, (±) Z 3-([3-Methyl-1,2,4-oxadiazol-5-yl]methin)-1-azabicyclo[2.2.1]heptane oxalate salt] | 30 | 1900
3 | C(=C1/CN2CCC1C2)/c1ncco1 (racemic) [Example E5, (±) Z 3-([1,3-Oxazol-2-yl]methin)-1-azabicyclo[2.2.1]heptane] | 8.6 | 1800
4 | C(=C1CN2CCC1C2)c1cnco1 (racemic) [Example E4, (±)E/Z 3-([1,3-Oxazol-5-yl]methin)-1-azabicyclo[2.2.1]heptane oxalate salt] | 294 | 27900
5 | Nc1noc(/C=C2\CN3CCC2C3)n1 (racemic) [Example E1, (±) Z 3-([3-Amino-1,2,4-oxadiazol-5-yl]methin)-1-azabicyclo[2.2.1]heptane] | 11.8 | 3200
6 | Nc1noc(C=C2CC3CCN(C2)C3)n1 (racemic) [Example E6, (±)E/Z 3-([3-Amino-1,2,4-oxadiazol-5-yl]methin)-1-azabicyclo[3.2.1]octane] | 520 | 5700
